Results reported in US20130096100A1, “DI(ARYLAMINO)ARYL COMPOUND” (ASTELLAS PHARMA INC., priority 2007, published 2013).

How the values were obtained:
[1] = system: v1 expressing 3T3 cells (tumor); assay: Antitumor effect on v1 expressing 3T3 cells inoculated in nude mice (Test Example 13); format: in vivo; conditions: once a day for 10 days, started 6 days after inoculation, BALB/c nude mice
Experimental: 3×10^6 cells of v1 expressing 3T3 cells suspended in PBS were inoculated subcutaneously by injection to the back of 5 weeks old male BALB/c nude mice (Charles River Japan, Inc.). […] Administrations were performed once a day for 14 days, and body weight and tumor size were measured every other day. Tumor volume was calculated using the following formula.
[Tumor volume (mm^3)]=[Tumor major axis (mm)]×[tumor minor axis (mm)]^2×0.5
The antitumor effect of compound D was investigated by the similar procedure with the following exceptions. The administration of the compound was started after 6 days of the inoculation and carried out once a day for 10 days.

[2] = target: T1, EML4-ALK fusion protein v1 (Homo sapiens, UniProt Q9UM73, D1529E/I1461V/K1491R); assay: Inhibitory effect of compounds against the in vitro kinase activity of EML4-ALK fusion protein v1, single concentration (Test Example 12(3)); format: biochemical; conditions: final concentration 10 nM
T1 construct: FLAG (N); made in house
T1 sequence (Q9UM73 with tags, fused parts or gaps I1461V/K1491R/D1529E): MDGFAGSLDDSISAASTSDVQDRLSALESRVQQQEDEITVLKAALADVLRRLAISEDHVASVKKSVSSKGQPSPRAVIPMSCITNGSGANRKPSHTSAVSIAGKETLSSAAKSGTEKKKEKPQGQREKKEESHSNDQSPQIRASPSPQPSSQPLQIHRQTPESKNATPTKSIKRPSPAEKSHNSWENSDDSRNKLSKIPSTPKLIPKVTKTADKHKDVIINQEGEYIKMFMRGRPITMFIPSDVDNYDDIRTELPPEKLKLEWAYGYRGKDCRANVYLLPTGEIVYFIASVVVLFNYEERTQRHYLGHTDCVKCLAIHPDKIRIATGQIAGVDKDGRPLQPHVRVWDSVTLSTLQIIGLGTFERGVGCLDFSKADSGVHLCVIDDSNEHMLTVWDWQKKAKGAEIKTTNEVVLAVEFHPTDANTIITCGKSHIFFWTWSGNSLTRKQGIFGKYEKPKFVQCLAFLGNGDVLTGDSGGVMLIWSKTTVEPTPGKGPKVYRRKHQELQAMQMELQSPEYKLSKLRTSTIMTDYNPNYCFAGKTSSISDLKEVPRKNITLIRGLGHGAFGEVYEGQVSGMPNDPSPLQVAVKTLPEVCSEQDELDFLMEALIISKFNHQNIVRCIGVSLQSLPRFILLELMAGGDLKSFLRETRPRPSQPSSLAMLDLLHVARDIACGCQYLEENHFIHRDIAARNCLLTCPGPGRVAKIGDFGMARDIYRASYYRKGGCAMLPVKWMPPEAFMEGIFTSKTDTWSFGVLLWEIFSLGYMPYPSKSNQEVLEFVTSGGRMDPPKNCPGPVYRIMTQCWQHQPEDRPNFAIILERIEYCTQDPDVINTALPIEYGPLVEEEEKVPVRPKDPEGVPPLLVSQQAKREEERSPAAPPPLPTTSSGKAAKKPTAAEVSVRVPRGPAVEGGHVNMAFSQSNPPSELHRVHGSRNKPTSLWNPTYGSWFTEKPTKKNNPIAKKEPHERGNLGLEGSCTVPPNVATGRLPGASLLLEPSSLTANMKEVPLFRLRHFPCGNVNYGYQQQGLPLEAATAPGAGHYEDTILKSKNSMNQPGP
Description: N-terminally FLAG-tagged EML4-ALK fusion protein v1 was inserted into a vector pMX-iresCD8 capable of co-expression of insert cDNA and cell surface antigen CD8 (J. Biol. Chem., 2001, vol. 276, p. 39012-39020) to create a vector FLAG-EML4-ALKv1/pMX-iresCD8 expressing both FLAG-EML4-ALKv1 and CD8. FLAG-EML4-ALKv1/pMX-iresCD8 was used to create a recombinant retrovirus in the same manner as described above and infected into mouse lymphoid cell line BA/F3 cells. Using a magnetic bead reagent for cell separation and a purification column (anti-CD8 monoclonal antibody immobilized on magnetic beads and a MiniMACS purification column; both are products of Miltenyi Biotec Inc.), cell surface CD8-expressing cells were purified conveniently. […] After washing 3 times with PBS, the cells were lysed in a lysis solution (50 mM Tris.HCl (pH 7.4), 150 mM NaCl, 1% Triton X100, 5 mM EDTA, 5 mM EGTA, 1 mM NaVO4, 1 mM DTT and protease inhibitor cocktail complete). The EML4-ALK fusion protein v1 present in the supernatant obtained after centrifugation was purified using ANTI-FLAG M2 Affinity Gel (SIGMA-ALDRICH Inc.) according to the method described in the product information document.
The EML4-ALK fusion protein v1 purified as above was investigated for its phosphorylation activity toward a peptide substrate using a kinase activity detection kit (HTRF KinEASE-TK; Cisbio Inc.). Using TK substrate 1, which was included in the kit, as the substrate, and after adding no ATP or 100 μM ATP, the mixtures were reacted at room temperature for 1 hour, and the count of HTRF was detected as recommended by the Kits manufacturer.

CNS(=O)(=O)c1ccccc1Nc1nc(Nc2ccc(N3CCN(C)CC3)cc2OC)ncc1Br [Compound D, 2-[(5-bromo-2-{[2-methoxy-4-(4-methylpiperazin-1-yl)phenyl]amino}pyrimidin-4-yl)amino]-N-methylbenzenesulfonamide]
inhibition of the growth of v1 expressing 3T3 cells (tumor) [1]: 101% | inhibition at 0.01 µM [2]: 99%
